± gives the expanded uncertainty stated by the source.
How the values were obtained:
[1] = xn = mol fraction of the nth substance listed; details: 303.15 K, 100 kPa, Liquid; for speed of sound: Frequency=3 MHz, Sing-around technique in a fixed-path interferometer; for mass density: Vibrating tube method
[2] = refractive index (Na D-line) (dimensionless); xn = mol fraction of the nth substance listed; details: 100 kPa, Liquid, Standard Abbe refractometry

SMILES: CCC(C)=O [butanone] + CN(C)C=O
- speed of sound ([1]; x2 = 0.5486): 1315.5 ± 1.4 m/s
- speed of sound ([1]; x2 = 0.6028): 1330.1 ± 1.4 m/s
- speed of sound ([1]; x2 = 0.6517): 1343.2 ± 1.4 m/s
- speed of sound ([1]; x2 = 0.7023): 1357.4 ± 1.4 m/s
- speed of sound ([1]; x2 = 0.7483): 1369.9 ± 1.4 m/s
- speed of sound ([1]; x2 = 0.7995): 1384.1 ± 1.4 m/s
- speed of sound ([1]; x2 = 0.8514): 1399 ± 1.5 m/s
- speed of sound ([1]; x2 = 0.8982): 1410.9 ± 1.5 m/s
- speed of sound ([1]; x2 = 0.946): 1425.2 ± 1.5 m/s
- mass density ([1]; x2 = 0): 794.55 ± 1.9 kg/m3
- mass density ([1]; x2 = 0.0496): 801.341 ± 1.9 kg/m3
- mass density ([1]; x2 = 0.1068): 809.288 ± 2 kg/m3
- mass density ([1]; x2 = 0.1478): 814.925 ± 2 kg/m3
- mass density ([1]; x2 = 0.1836): 819.8 ± 2 kg/m3
- mass density ([1]; x2 = 0.2521): 829.427 ± 2 kg/m3
- mass density ([1]; x2 = 0.2943): 835.351 ± 2 kg/m3
- mass density ([1]; x2 = 0.3532): 843.706 ± 2 kg/m3
- mass density ([1]; x2 = 0.3938): 849.516 ± 2.1 kg/m3
- mass density ([1]; x2 = 0.4538): 858.11 ± 2.1 kg/m3
- mass density ([1]; x2 = 0.4969): 864.319 ± 2.1 kg/m3
- mass density ([1]; x2 = 0.5486): 871.924 ± 2.1 kg/m3
- mass density ([1]; x2 = 0.6028): 879.882 ± 2.1 kg/m3
- mass density ([1]; x2 = 0.6517): 886.955 ± 2.1 kg/m3
- mass density ([1]; x2 = 0.7023): 894.541 ± 2.2 kg/m3
- mass density ([1]; x2 = 0.7483): 901.328 ± 2.2 kg/m3
- mass density ([1]; x2 = 0.7995): 908.942 ± 2.2 kg/m3
- mass density ([1]; x2 = 0.8514): 916.844 ± 2.2 kg/m3
- mass density ([1]; x2 = 0.8982): 923.832 ± 2.2 kg/m3
- mass density ([1]; x2 = 0.946): 931.082 ± 2.2 kg/m3
- refractive index ([2]; 293.15 K, x2 = 0): 1.37872 ± 0.0042
- refractive index ([2]; 293.15 K, x2 = 0.0482): 1.3812 ± 0.0042
- refractive index ([2]; 293.15 K, x2 = 0.1051): 1.3841 ± 0.0042
- refractive index ([2]; 293.15 K, x2 = 0.148): 1.38629 ± 0.0042
- refractive index ([2]; 293.15 K, x2 = 0.1915): 1.38843 ± 0.0042
- refractive index ([2]; 293.15 K, x2 = 0.253): 1.39163 ± 0.0042
- refractive index ([2]; 293.15 K, x2 = 0.3008): 1.39408 ± 0.0042
- refractive index ([2]; 293.15 K, x2 = 0.3386): 1.39604 ± 0.0042
- refractive index ([2]; 293.15 K, x2 = 0.3915): 1.39872 ± 0.0042
- refractive index ([2]; 293.15 K, x2 = 0.4432): 1.40144 ± 0.0042
- refractive index ([2]; 293.15 K, x2 = 0.4887): 1.40384 ± 0.0042
- refractive index ([2]; 293.15 K, x2 = 0.5536): 1.40712 ± 0.0042
- refractive index ([2]; 293.15 K, x2 = 0.6017): 1.40972 ± 0.0042
- refractive index ([2]; 293.15 K, x2 = 0.6519): 1.41237 ± 0.0043
- refractive index ([2]; 293.15 K, x2 = 0.7023): 1.41495 ± 0.0043
- refractive index ([2]; 293.15 K, x2 = 0.7525): 1.41752 ± 0.0043
- refractive index ([2]; 293.15 K, x2 = 0.8002): 1.42009 ± 0.0043
- refractive index ([2]; 293.15 K, x2 = 0.8492): 1.42274 ± 0.0043
- refractive index ([2]; 293.15 K, x2 = 0.9032): 1.42553 ± 0.0043
- refractive index ([2]; 293.15 K, x2 = 0.9477): 1.42785 ± 0.0043
- refractive index ([2]; 298.15 K, x2 = 0): 1.37605 ± 0.0041
- refractive index ([2]; 298.15 K, x2 = 0.0519): 1.37886 ± 0.0042
- refractive index ([2]; 298.15 K, x2 = 0.1048): 1.38152 ± 0.0042
- refractive index ([2]; 298.15 K, x2 = 0.1506): 1.38397 ± 0.0042
- refractive index ([2]; 298.15 K, x2 = 0.1948): 1.38631 ± 0.0042
- refractive index ([2]; 298.15 K, x2 = 0.2482): 1.38913 ± 0.0042
- refractive index ([2]; 298.15 K, x2 = 0.3032): 1.39213 ± 0.0042
- refractive index ([2]; 298.15 K, x2 = 0.3543): 1.39479 ± 0.0042
- refractive index ([2]; 298.15 K, x2 = 0.3962): 1.39697 ± 0.0042
- refractive index ([2]; 298.15 K, x2 = 0.4495): 1.39982 ± 0.0042
- refractive index ([2]; 298.15 K, x2 = 0.4916): 1.40199 ± 0.0042
- refractive index ([2]; 298.15 K, x2 = 0.5536): 1.40522 ± 0.0042
- refractive index ([2]; 298.15 K, x2 = 0.5946): 1.40739 ± 0.0042
- refractive index ([2]; 298.15 K, x2 = 0.6572): 1.41063 ± 0.0042
- refractive index ([2]; 298.15 K, x2 = 0.7034): 1.41301 ± 0.0043
- refractive index ([2]; 298.15 K, x2 = 0.7461): 1.41516 ± 0.0043
- refractive index ([2]; 298.15 K, x2 = 0.7965): 1.41779 ± 0.0043
- refractive index ([2]; 298.15 K, x2 = 0.8488): 1.42048 ± 0.0043
- refractive index ([2]; 298.15 K, x2 = 0.894): 1.42276 ± 0.0043
- refractive index ([2]; 298.15 K, x2 = 0.9427): 1.42542 ± 0.0043
- refractive index ([2]; 303.15 K, x2 = 0): 1.37351 ± 0.0041
- refractive index ([2]; 303.15 K, x2 = 0.0496): 1.37623 ± 0.0041
- refractive index ([2]; 303.15 K, x2 = 0.1068): 1.37911 ± 0.0042
- refractive index ([2]; 303.15 K, x2 = 0.1478): 1.38113 ± 0.0042
- refractive index ([2]; 303.15 K, x2 = 0.1836): 1.38314 ± 0.0042
- refractive index ([2]; 303.15 K, x2 = 0.2521): 1.38686 ± 0.0042
- refractive index ([2]; 303.15 K, x2 = 0.2943): 1.38911 ± 0.0042
- refractive index ([2]; 303.15 K, x2 = 0.3532): 1.39202 ± 0.0042
- refractive index ([2]; 303.15 K, x2 = 0.3938): 1.39409 ± 0.0042
- refractive index ([2]; 303.15 K, x2 = 0.4538): 1.39728 ± 0.0042
- refractive index ([2]; 303.15 K, x2 = 0.4969): 1.39967 ± 0.0042
- refractive index ([2]; 303.15 K, x2 = 0.5486): 1.40242 ± 0.0042
- refractive index ([2]; 303.15 K, x2 = 0.6028): 1.40517 ± 0.0042
- refractive index ([2]; 303.15 K, x2 = 0.6517): 1.4078 ± 0.0042
- refractive index ([2]; 303.15 K, x2 = 0.7023): 1.4105 ± 0.0042
- refractive index ([2]; 303.15 K, x2 = 0.7483): 1.41287 ± 0.0043
- refractive index ([2]; 303.15 K, x2 = 0.7995): 1.41553 ± 0.0043
- refractive index ([2]; 303.15 K, x2 = 0.8514): 1.41823 ± 0.0043
- refractive index ([2]; 303.15 K, x2 = 0.8982): 1.42066 ± 0.0043
- refractive index ([2]; 303.15 K, x2 = 0.946): 1.4232 ± 0.0043
